Test results from ChEMBL document CHEMBL3853300, “Synthesis of α-santonin derived acetyl santonous acid triazole derivatives and their bioevaluation for T and B-cell proliferation” (Eur J Med Chem, 2016).

Tests used:
Mus musculus [1] = species on record: Mus musculus; assay: Cytotoxicity against Balb/c mouse B cells assessed as decrease in cell viability at 100 uM after 48 hrs by MTT assay; type: toxicity, cell-based
Mus musculus [2] = species on record: Mus musculus; assay: Cytotoxicity against Balb/c mouse B cells assessed as decrease in cell viability at 10 uM after 48 hrs by MTT assay; type: toxicity, cell-based
Mus musculus [3] = species on record: Mus musculus; assay: Cytotoxicity against Balb/c mouse B cells assessed as decrease in cell viability at 1 uM after 48 hrs by MTT assay; type: toxicity, cell-based
Mus musculus [4] = species on record: Mus musculus; assay: Cytotoxicity against Balb/c mouse T cells assessed as decrease in cell viability at 100 uM after 48 hrs by MTT assay; type: toxicity, cell-based
Mus musculus [5] = species on record: Mus musculus; assay: Cytotoxicity against Balb/c mouse T cells assessed as decrease in cell viability at 10 uM after 48 hrs by MTT assay; type: toxicity, cell-based
Mus musculus [6] = species on record: Mus musculus; assay: Cytotoxicity against Balb/c mouse T cells assessed as decrease in cell viability at 1 uM after 48 hrs by MTT assay; type: toxicity, cell-based
[7] = Immunosuppressive activity in Balb/c mouse T cells assessed as inhibition of ConA-induced cell proliferation at 100 uM after 48 hrs by MTT assay relative to control; type: functional
[8] = Immunosuppressive activity in Balb/c mouse B cells assessed as inhibition of LPS-induced cell proliferation at 100 uM after 48 hrs by MTT assay relative to control; type: functional
[9] = Immunosuppressive activity in Balb/c mouse B cells assessed as inhibition of LPS-induced cell proliferation at 10 uM after 48 hrs by MTT assay relative to control; type: functional
[10] = Immunosuppressive activity in Balb/c mouse B cells assessed as inhibition of LPS-induced cell proliferation at 1 uM after 48 hrs by MTT assay relative to control; type: functional
T-cell = assay: Immunosuppressive activity in Balb/c mouse T cells assessed as inhibition of ConA-induced cell proliferation after 48 hrs by MTT assay relative to control; type: functional, cell-based
[11] = Immunosuppressive activity in Balb/c mouse T cells assessed as inhibition of ConA-induced cell proliferation at 10 uM after 48 hrs by MTT assay relative to control; type: functional
[12] = Immunosuppressive activity in Balb/c mouse T cells assessed as inhibition of ConA-induced cell proliferation at 1 uM after 48 hrs by MTT assay relative to control; type: functional
B = assay: Immunosuppressive activity in Balb/c mouse B cells assessed as inhibition of LPS-induced cell proliferation after 48 hrs by MTT assay relative to control; type: functional, cell-based

Compound	Activity (Mus musculus [1])	Activity (Mus musculus [2])	Activity (Mus musculus [3])	Activity (Mus musculus [4])	Activity (Mus musculus [5])	Activity (Mus musculus [6])	inhibition at 100 µM [7] [%]	inhibition at 100 µM [8] [%]	inhibition at 10 µM [9] [%]	inhibition at 1 µM [10] [%]	inhibition (T-cell)	inhibition at 10 µM [11] [%]	inhibition at 1 µM [12] [%]	inhibition (B)
CC(=O)Oc1cc(C)c2c(c1C)C[C@H]([C@@H](C)C(=O)OCc1cn(-c3cc(I)ccc3C)nn1)CC2	Toxic	Toxic	Non-Toxic	Toxic	Toxic	Non-Toxic	26.5	28	34.6	39	Dose-dependent effect	38.2	34.5	Dose-dependent effect
C#CCOC(=O)[C@H](C)[C@@H]1CCc2c(C)cc(OC(C)=O)c(C)c2C1	Non-Toxic	Toxic	Non-Toxic	Non-Toxic	Toxic	Non-Toxic	71.5	69.7	59.3	57.8	Dose-dependent effect	51.2	41.7	Dose-dependent effect
CC(=O)Oc1cc(C)c2c(c1C)C[C@H]([C@@H](C)C(=O)OCc1cn(-c3ccc(C(=O)c4ccccc4)cc3)nn1)CC2	Toxic	Toxic	Non-Toxic	Toxic	Toxic	Non-Toxic	20	81.2	75	69.3	Dose-dependent effect	28	5.33	Dose-dependent effect
CC(=O)Oc1cc(C)c2c(c1C)C[C@H]([C@@H](C)C(=O)OCc1cn(-c3ccc(Cl)c(Cl)c3)nn1)CC2	Toxic	Toxic	Non-Toxic	Toxic	Toxic	Non-Toxic	11.8	49.5	50.5	39	Dose-dependent effect	18.4	31.6	Dose-dependent effect
CC(=O)Oc1cc(C)c2c(c1C)C[C@H]([C@@H](C)C(=O)OCc1cn(-c3ccc(NC(=O)c4ccccc4)cc3)nn1)CC2	Non-Toxic	Toxic	Non-Toxic	Non-Toxic	Toxic	Non-Toxic	38.2	19.2	35.2	36.8	Dose-dependent effect	30.9	7.35	Dose-dependent effect
CC(=O)Oc1cc(C)c2c(c1C)C[C@H]([C@@H](C)C(=O)OCc1cn(-c3ccccc3CO)nn1)CC2	Toxic	Toxic	Toxic	Toxic	Toxic	Toxic	81.1	53.4	64.1	60.3	Dose-dependent effect	32.6	17.4	Dose-dependent effect
CC(=O)Oc1cc(C)c2c(c1C)C[C@H]([C@@H](C)C(=O)OCc1cn(-c3ccc(C#N)cc3)nn1)CC2	Toxic	Toxic	Toxic	Toxic	Toxic	Toxic	59.8	67.9	80.9	76.3	Dose-dependent effect	52.3	35.6	Dose-dependent effect
CC(=O)Oc1cc(C)c2c(c1C)C[C@H]([C@@H](C)C(=O)OCc1cn(-c3ccc(CO)cc3)nn1)CC2	Toxic	Toxic	Toxic	Toxic	Toxic	Toxic	5.88	11.5	35.7	40	Dose-dependent effect	37.5	40	Dose-dependent effect
CC(=O)Oc1cc(C)c2c(c1C)C[C@H]([C@@H](C)C(=O)OCc1cn(-c3ccccc3Cl)nn1)CC2	Toxic	Toxic	Toxic	Toxic	Toxic	Toxic	30.6	37.7	30.3	33.7	Dose-dependent effect	17.6	5.55	Dose-dependent effect
CC(=O)Oc1cc(C)c2c(c1C)C[C@H]([C@@H](C)C(=O)OCc1cn(Cc3ccccc3)nn1)CC2	Toxic	Non-Toxic	Non-Toxic	Toxic	Non-Toxic	Non-Toxic	44	32.3	33.5	48.6	Dose-dependent effect	39.2	33	Dose-dependent effect
CC(=O)Oc1cc(C)c2c(c1C)C[C@H]([C@@H](C)C(=O)OCc1cn(-c3ccc(O)cc3)nn1)CC2	Toxic	Toxic	Non-Toxic	Toxic	Toxic	Non-Toxic	17.6	29.7	26.3	36.6	Dose-dependent effect	5.55	33.3	Dose-dependent effect
COc1cc(-n2cc(COC(=O)[C@H](C)[C@@H]3CCc4c(C)cc(OC(C)=O)c(C)c4C3)nn2)cc(OC)c1OC	Non-Toxic	Toxic	Toxic	Non-Toxic	Toxic	Toxic	83.3	89.3	22.1	42	Dose-dependent effect	37.1	45.5	Dose-dependent effect
